In paper PMC8177814 (Molecular pharmaceutics, 2020):
Read-outs that look alike come from different tables or passages of the source. Blank lines part the entries; values can stand above or below the molecule they belong to.

Columns and labels:
BCRP (ABCG2) [1] = molecular target: T1, BCRP (ABCG2) (Homo sapiens, UniProt Q9UNQ0); conditions: 30 min
T1 sequence (Q9UNQ0 1-655): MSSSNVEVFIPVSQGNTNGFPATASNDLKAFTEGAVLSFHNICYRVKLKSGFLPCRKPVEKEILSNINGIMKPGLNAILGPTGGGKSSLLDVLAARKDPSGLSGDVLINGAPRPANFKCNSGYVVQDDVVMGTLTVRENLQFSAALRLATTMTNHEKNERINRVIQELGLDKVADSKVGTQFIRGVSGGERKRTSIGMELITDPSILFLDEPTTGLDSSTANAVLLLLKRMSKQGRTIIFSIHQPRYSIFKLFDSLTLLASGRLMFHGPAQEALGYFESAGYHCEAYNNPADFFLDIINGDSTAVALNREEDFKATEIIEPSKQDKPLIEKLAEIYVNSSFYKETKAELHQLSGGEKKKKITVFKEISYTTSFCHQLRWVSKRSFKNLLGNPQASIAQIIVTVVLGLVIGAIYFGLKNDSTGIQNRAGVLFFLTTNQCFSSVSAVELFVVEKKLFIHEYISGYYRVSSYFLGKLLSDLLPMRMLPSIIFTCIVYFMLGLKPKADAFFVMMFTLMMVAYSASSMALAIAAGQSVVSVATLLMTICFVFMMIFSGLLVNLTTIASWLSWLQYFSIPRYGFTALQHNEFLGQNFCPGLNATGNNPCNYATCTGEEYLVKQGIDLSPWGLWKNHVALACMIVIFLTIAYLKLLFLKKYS

human BCRP [2] = molecular target: T2, human BCRP (Homo sapiens, UniProt Q9UNQ0); test: BCRP vesicular transport assay
T2 sequence (Q9UNQ0 1-655): T1 sequence (Q9UNQ0 1-655)

BCRP = conditions: previous study; cited from earlier work
human BCRP [3] = molecular target: T2, human BCRP
BCRP (ABCG2) [4] = molecular target: T1, BCRP (ABCG2); test: 3H-oxypurinol accumulation assay in BCRP-overexpressing HEK293 cells; conditions: excipients at concentrations similar to vesicle screen; 30 min

increase of BCRP-mediated 3H-oxypurinol accumulation in BCRP-overexpressing HEK293 cells (BCRP (ABCG2) [1]): more than 50%
Molecule: CCN(CC)c1ccc2c(-c3ccccc3C(=O)O)c3ccc(=[N+](CC)CC)cc-3oc2c1 [Rhodamine B]

(EV + I)/(EV – I), nonspecific effect on cell membranes (BCRP (ABCG2) [1]; 100 μM): 0.571
normalized oxypurinol accumulation ((BCRP + I)/(BCRP – I))/((EV + I)/(EV – I)) (BCRP (ABCG2) [1]; 100 μM): 3.7
Molecule: COc1cc(/C=C/C(=O)CC(=O)/C=C/c2ccc(O)c(OC)c2)ccc1O [curcumin, reference compound]

inhibition of BCRP-mediated 3H-CCK8 uptake in vesicles (in words) (human BCRP [3]): did not inhibit
Molecule: COc1ccc(CCC(=O)c2c(O)cc(O[C@@H]3O[C@H](CO)[C@@H](O)[C@H](O)[C@H]3O[C@@H]3O[C@@H](C)[C@H](O)[C@@H](O)[C@H]3O)cc2O)cc1O [neohesperidin DC]
inhibition of BCRP-mediated Lucifer yellow uptake in vesicle assays (BCRP): did inhibit

The remaining lines, values behind:

Molecule: CCCCC(CC)COC(=O)CC(C(=O)OCC(CC)CCCC)S(=O)(=O)O (stereo not shown) [Docusate sodium]
increase of BCRP-mediated 3H-oxypurinol accumulation in BCRP-overexpressing HEK293 cells (BCRP (ABCG2) [1]): 26.4%

Molecule: CCN(Cc1cccc(S(=O)(=O)[O-])c1)c1ccc(C(=C2C=CC(=[N+](CC)Cc3cccc(S(=O)(=O)[O-])c3)C=C2)c2ccccc2S(=O)(=O)[O-])cc1.[Na+].[Na+] [FD&C Blue No. 1]
inhibition of BCRP-mediated 3H-CCK8 uptake in vesicles (in words) (human BCRP [2]; screening concentration, inhibitor = more than 50% inhibition): inhibited
inhibition of BCRP-mediated Lucifer yellow uptake in vesicle assays (BCRP): did not inhibit

Molecule: O=C1OC(c2ccc(O)c(S(=O)(=O)O)c2)(c2ccc(O)c(S(=O)(=O)O)c2)c2c(Br)c(Br)c(Br)c(Br)c21 [bromosulfophthalein, reference compound]
3H-CCK8 uptake in human BCRP membrane vesicles (human BCRP [2]; 5 mM ATP and 200 μM BSP, 37 °C, 5 min (ATP alone 1.88, AMP 0.58)): 0.44 pmol/mg/min

Molecule: D&C Brown No. 1
increase of BCRP-mediated 3H-oxypurinol accumulation in BCRP-overexpressing HEK293 cells (BCRP (ABCG2) [4]): 26.8%
